This note sets out measurements from ChEMBL document CHEMBL5380830, “Development and Therapeutic Implications of Tyrosine Kinase 2 Inhibitors” (J Med Chem, 2023).

Data set [1] deals with T1, Tyrosine-protein kinase JAK2 (Homo sapiens, UniProt O60674). The experiment in a line: Inhibition of JAK2 (unknown origin).
The target in data set [2] is T2, Non-receptor tyrosine-protein kinase TYK2 (Homo sapiens, UniProt P29597). The experiment in a line: Inhibition of TYK2 JH2 (unknown origin).
The nature of data set [3]: AUC in C57BL/6 mouse at 10 mg/kg, po by LC/MS-MS analysis. More on the design: dose 10 mg/kg, route po. In kind it is ADME, organism-based. To be noted: in vivo.
Data set [4] in a line: Cmax in C57BL/6 mouse at 10 mg/kg, po by LC/MS-MS analysis. In kind it is ADME, organism-based. More on the design: dose 10 mg/kg, route po. To be noted: in vivo.
Data set [5] concerns the target T2, Non-receptor tyrosine-protein kinase TYK2. The experiment in a line: Inhibition of TYK2 JH1 (unknown origin).
In data set [6] the target is T3, JAK2/TYK2 (Homo sapiens, UniProt O60674+P29597). The experiment in a line: Inhibition of JAK2/TYK2 signal transduction pathway in human PBMC cells assessed as IL-12 induced p-STAT4 level incubated for 30 mins. In kind it is cell-based.
Data set [7] deals with T3, JAK2/TYK2. The experiment in a line: Inhibition of JAK2/TYK2 signal transduction pathway in human PBMC cells assessed as reduction in GM-CSF induced p-STAT5 level incubated for 20 mins. In kind it is cell-based.
The target of data set [8] is T2, Non-receptor tyrosine-protein kinase TYK2. The experiment in a line: Inhibition of TYK2 JH1 (unknown origin) at 10 uM relative to control.
In data set [9] the target is T1, Tyrosine-protein kinase JAK2. Kind of data set: Inhibition of JAK2 JH1 (unknown origin) at 10 uM relative to control.
The target of data set [10] is T2, Non-receptor tyrosine-protein kinase TYK2. Kind of data set: Binding affinity to human wild-type partial length TYK2 JH2 (G556 to D888 residues) expressed in mammalian expression system by KINOMEscan assay.
The target in data set [11] is T4, Tyrosine-protein kinase JAK1 (Homo sapiens, UniProt P23458). The experiment in a line: Binding affinity to JAK1 JH2 (unknown origin).
Data set [12] addresses T2, Non-receptor tyrosine-protein kinase TYK2. Kind of data set: Inhibition of TYK2 JH2 in human KIT225 cells assessed as reduction of IFNalpha induced STAT1 phosphorylation by AlphaLISA assay. In kind it is cell-based. For orientation: Alpha assays give light when donor and acceptor beads are brought close together.
Data set [13] has the same target. The experiment in a line: Inhibition of TYK2 in HEK-Blue IL-23 cells assessed as reduction in SEAP reporter gene expression by Quanti-blue assay. In kind it is cell-based. A general note: Reporter assays use an easily measured gene product as a stand-in for the process of interest.
Data set [14] is described as follows: Inhibition of IL-2 induced STAT phosphorylation in HEK293 cells by Western blotting analysis. In kind it is cell-based. As to conditions: Homo sapiens. In general terms: A western blot detects proteins with antibodies after separation by electrophoresis.
Data set [15] is described as follows: Inhibition of IFN-gamma induced STAT phosphorylation in HEK293 cells by Western blotting analysis. In kind it is cell-based. To be noted: Homo sapiens.
Data set [16] is described as follows: Inhibition of IFNalpha induced STAT phosphorylation in HEK293 cells by Western blotting analysis. In kind it is cell-based. To be noted: Homo sapiens.
Data set [17] in a line: Inhibition of IL-23 induced STAT phosphorylation in HEK293 cells by Western blotting analysis. To be noted: Homo sapiens. In kind it is cell-based.
The next data set has as its target Janus Kinase (JAK) (Homo sapiens, UniProt P52333+P23458+O60674+P29597). Kind of data set: Inhibition of JAK JH1 (unknown origin). In kind it is protein assay.
Data set [18] has as its target T2, Non-receptor tyrosine-protein kinase TYK2. The experiment in a line: Inhibition of TYK2 JH2 (561 to 860 residues) (unknown origin) by HTRF assay.
The target in data set [19] is T3, JAK2/TYK2. The experiment in a line: Inhibition of JAK2/TYK2 signal transduction pathway in human NK92 cells assessed as IL-12 induced STAT4 phosphorylation. In kind it is cell-based.
The target in data set [20] is T4, Tyrosine-protein kinase JAK1. The experiment in a line: Inhibition of JAK1 JH2 (unknown origin).
Data set [21] deals with T2, Non-receptor tyrosine-protein kinase TYK2. The experiment in a line: Inhibition of TYK2 signal transduction pathway in human TF-1 cells assessed as reduction in GM-CSF induced p-STAT5 level. In kind it is cell-based.
The target of data set [22] is T3, JAK2/TYK2. Kind of data set: Inhibition of JAK2/TYK2 signal transduction pathway in human PBMC cells assessed as IL-12 induced p-STAT4 level by AlphaLISA assay. In kind it is cell-based.
The target of data set [23] is T3, JAK2/TYK2. Kind of data set: Inhibition of JAK2/TYK2 signal transduction pathway in human PBMC cells assessed as IL-23 induced p-STAT4 level by AlphaLISA assay. In kind it is cell-based.
Data set [24] deals with T2, Non-receptor tyrosine-protein kinase TYK2. The experiment in a line: Binding affinity to His-tagged human recombinant TYK2 JH2 (556 to 871 residues) incubated for 10 hrs by microplate reader based analysis.

T3 sequence (O60674 whole entry): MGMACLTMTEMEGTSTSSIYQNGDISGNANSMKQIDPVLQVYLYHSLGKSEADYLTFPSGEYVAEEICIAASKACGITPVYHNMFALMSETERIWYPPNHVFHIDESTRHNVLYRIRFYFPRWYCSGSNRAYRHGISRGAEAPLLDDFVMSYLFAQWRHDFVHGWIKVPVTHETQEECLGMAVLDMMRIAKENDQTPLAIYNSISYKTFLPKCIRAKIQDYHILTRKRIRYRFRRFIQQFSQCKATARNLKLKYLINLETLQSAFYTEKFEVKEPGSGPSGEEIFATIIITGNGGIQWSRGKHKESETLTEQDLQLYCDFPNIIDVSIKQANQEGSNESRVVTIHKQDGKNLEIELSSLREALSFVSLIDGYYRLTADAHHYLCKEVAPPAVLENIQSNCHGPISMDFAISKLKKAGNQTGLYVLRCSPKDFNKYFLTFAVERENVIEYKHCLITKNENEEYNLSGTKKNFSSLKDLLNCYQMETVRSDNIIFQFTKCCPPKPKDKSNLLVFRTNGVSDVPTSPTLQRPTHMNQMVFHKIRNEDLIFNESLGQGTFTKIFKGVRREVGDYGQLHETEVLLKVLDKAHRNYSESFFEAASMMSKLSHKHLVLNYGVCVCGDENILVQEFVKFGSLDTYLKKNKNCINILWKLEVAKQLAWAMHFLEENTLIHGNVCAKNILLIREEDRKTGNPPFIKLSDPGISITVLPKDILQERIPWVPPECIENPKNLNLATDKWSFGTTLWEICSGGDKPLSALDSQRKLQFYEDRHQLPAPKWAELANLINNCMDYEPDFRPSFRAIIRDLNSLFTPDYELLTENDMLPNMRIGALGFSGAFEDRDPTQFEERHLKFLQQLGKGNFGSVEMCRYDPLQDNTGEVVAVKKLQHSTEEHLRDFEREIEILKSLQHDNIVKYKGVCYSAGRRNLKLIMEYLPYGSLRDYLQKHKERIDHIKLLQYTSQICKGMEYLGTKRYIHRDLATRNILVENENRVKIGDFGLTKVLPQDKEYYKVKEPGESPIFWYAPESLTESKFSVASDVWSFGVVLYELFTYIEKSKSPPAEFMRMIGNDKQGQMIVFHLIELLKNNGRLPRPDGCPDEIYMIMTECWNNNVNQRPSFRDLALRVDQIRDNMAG
T3 sequence (P29597 whole entry): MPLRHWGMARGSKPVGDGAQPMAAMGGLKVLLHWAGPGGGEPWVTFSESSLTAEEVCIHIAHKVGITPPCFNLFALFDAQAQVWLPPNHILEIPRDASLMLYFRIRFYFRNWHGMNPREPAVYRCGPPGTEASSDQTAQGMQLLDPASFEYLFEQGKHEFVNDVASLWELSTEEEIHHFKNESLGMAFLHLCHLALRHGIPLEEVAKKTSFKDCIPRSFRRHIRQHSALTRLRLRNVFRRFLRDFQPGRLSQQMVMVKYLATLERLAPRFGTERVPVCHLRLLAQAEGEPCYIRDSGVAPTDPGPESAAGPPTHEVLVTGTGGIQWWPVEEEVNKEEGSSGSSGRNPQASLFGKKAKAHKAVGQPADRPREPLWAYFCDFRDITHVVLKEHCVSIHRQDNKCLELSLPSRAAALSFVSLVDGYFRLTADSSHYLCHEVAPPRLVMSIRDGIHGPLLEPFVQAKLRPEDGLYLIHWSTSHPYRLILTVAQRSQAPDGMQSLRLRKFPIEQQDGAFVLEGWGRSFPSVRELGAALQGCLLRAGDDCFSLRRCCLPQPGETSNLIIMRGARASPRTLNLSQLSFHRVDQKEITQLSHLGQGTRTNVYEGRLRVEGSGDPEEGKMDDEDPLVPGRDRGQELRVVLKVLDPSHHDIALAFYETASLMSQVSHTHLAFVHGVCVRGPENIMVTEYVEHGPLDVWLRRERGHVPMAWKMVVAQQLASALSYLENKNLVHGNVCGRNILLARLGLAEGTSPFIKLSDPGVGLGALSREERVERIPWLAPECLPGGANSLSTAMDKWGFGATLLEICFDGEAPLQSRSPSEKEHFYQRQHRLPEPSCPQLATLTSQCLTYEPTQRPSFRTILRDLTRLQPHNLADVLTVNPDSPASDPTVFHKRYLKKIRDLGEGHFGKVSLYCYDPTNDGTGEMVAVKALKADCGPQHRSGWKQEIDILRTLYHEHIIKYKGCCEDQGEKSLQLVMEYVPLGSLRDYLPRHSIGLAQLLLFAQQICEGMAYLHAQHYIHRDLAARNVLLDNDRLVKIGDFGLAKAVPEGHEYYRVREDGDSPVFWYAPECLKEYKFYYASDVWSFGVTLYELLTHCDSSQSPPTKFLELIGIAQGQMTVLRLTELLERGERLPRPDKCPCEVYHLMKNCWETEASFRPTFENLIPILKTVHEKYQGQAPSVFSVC
T2 sequence (P29597 whole entry): as above
T1 sequence (O60674 whole entry): as the sequence (O60674 whole entry) above
T4 sequence (P23458 whole entry): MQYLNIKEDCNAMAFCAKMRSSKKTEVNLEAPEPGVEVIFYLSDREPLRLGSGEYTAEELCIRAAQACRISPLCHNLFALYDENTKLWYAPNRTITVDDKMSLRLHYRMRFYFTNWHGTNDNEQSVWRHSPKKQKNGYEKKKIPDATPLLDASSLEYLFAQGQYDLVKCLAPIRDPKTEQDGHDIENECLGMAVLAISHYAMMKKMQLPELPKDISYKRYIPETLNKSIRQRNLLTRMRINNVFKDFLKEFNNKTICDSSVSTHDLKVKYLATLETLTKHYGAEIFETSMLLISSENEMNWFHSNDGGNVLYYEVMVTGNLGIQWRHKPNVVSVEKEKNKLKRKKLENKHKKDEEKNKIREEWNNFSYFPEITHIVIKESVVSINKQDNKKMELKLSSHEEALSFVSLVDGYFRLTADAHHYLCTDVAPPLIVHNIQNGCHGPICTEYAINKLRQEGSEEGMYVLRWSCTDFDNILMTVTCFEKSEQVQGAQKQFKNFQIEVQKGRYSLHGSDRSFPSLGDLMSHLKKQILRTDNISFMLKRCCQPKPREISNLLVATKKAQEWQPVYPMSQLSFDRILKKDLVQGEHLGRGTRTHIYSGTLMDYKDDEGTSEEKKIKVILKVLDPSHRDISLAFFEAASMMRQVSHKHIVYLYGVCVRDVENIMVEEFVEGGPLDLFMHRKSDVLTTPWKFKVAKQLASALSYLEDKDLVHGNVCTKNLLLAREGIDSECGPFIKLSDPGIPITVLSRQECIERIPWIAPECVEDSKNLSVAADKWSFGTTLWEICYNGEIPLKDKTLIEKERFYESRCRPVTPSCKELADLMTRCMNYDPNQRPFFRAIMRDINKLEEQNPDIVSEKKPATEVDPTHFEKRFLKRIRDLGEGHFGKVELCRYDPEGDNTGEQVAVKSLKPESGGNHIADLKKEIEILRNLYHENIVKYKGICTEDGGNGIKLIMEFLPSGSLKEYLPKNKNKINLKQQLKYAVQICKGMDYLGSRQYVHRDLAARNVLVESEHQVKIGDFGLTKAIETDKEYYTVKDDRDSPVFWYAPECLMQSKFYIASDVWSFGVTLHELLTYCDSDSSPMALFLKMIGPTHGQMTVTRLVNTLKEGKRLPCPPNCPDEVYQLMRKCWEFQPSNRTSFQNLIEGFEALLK

As for `CO[C@@]1(c2cc(C)cc(-n3cc(C4CC4)c4cnc(NC(C)=O)cc43)n2)CCOC1`, the values for the concentration for half-maximal inhibition (IC50) in [1], in [2] and in data set [5] were over 10000 nM, 0.6 nM and over 10000 nM, respectively. The AUC – broadly, the area under the concentration-time curve, a measure of exposure – in data set [3] is 10900 ng·h/mL. Moreover, the Cmax (commonly the highest concentration seen after dosing) in data set [4] came out at 2060 ng/mL.

`CNc1cc(Nc2cccn(-c3cnc(C(C)(C)O)cn3)c2=O)nc2c(C(=O)NC3CCC3)cnn12`: the IC50 at JAK2/TYK2 [6] and at JAK2/TYK2 [7] was under 500 nM each time. The inhibition in [8] and in data set [9] was under 50% in each case. Further, the figures for the Kd in data set [10] and in data set [11] were under 0.2 nM and 5000 nM, respectively.

On to `[2H]C([2H])([2H])NC(=O)c1nnc(Nc2ccc(N3CC(O)C3)cn2)cc1Nc1cccc(-c2ncn(C)n2)c1OC`, for which the IC50 (usually the concentration at which inhibition is half-maximal) in data set [12] was 83 nM. Binding in data set [10] was characterised by a dissociation constant (Kd) of 0.005 nM.

As for `[2H]C([2H])([2H])NC(=O)c1nnc(NC(=O)[C@H]2CC23CC3)cc1Nc1ncc(OCCOC)cc1S(C)(=O)=O`, the IC50 in data set [13] is under 1 nM.

In the case of `COc1cccc(-n2[nH]c(=O)c3cnc(Nc4cc(C)nc(C)n4)cc32)c1F`, the IC50 in data set [14] is over 90000 nM; in data set [15] it was over 90000 nM; in [16], under 10000 nM; in [17], under 10000 nM; at Janus Kinase (JAK) it was over 90000 nM.

Turning to `[2H]C([2H])([2H])NC(=O)c1nnc(NC(=O)C2CC2)cc1Nc1ncc(C2CC2)cc1S(C)(=O)=O`, the IC50 in data set [13] was under 1 nM.

Consider `COCCOc1cc(Nc2cc(NC(C)=O)ncc2-c2ccccn2)nc(S(C)(=O)=O)c1`, for which the IC50 in data set [18] was 0.018 nM; at JAK2/TYK2 [19] it was 1.21 nM; in data set [20], 1.2 nM; in [21], over 10000 nM.

`CO[C@@]1(c2cc(C)cc(-n3nc(-c4cnn(C)c4)c4cnc(NC(N)=O)cc43)n2)CCOC1`: the IC50 at JAK2/TYK2 [22] came to 9 nM; at JAK2/TYK2 [23] it was 3 nM. The Ki – broadly, the equilibrium dissociation constant of an inhibitor or competing ligand from its target – in data set [24] was found to be 2 nM.

On to `N#Cc1ccc(-n2[nH]c(=O)c3cnc(Nc4ccc(F)cn4)cc32)cc1Cl`, for which the 50% inhibitory concentration (IC50) in data set [14] is over 90000 nM; in data set [15], over 90000 nM; in data set [16], under 10000 nM; in data set [17] it was under 10000 nM; against Janus Kinase (JAK), over 90000 nM.
